Results: patent US20250109140A1, “5-[5-(PIPERIDIN-4-YL)THIENO[3,2-C]PYRAZOL-2-YL]INDAZOLE DERIVATIVES AND RELATED COMPOUNDS AS MODULATORS FOR SPLICING NUCLEIC ACIDS AND FOR THE TREATMENT OF PROLIFERATIVE DISEASES” (REMIX THERAPUTICS INC., priority 2022, published 2025)
Counter-ions that a name gives are not always drawn. Like-named read-outs stand apart in the source and are kept apart here.

Assays:
Format in all cases: cell-based
MYB mRNA = experiment: Splicing RT-qPCR assay, MYB canonical (CJ) and alternative (AJ) junction mRNA; conditions: Homo sapiens; for EC50: AC50 = 50% response in AJ mRNA increase
Protocol: (§1) Compounds described herein were used to modulate RNA transcript abundance in cells. The expression of a target mRNA was measured by detecting the formation of an exon-exon junction in the canonical transcript (CJ). A compound mediated exon-inclusion event was detected by observing an increase in formation of a new junction with an alternative exon (AJ). Real-time qPCR assays were used to detect these splicing switches and interrogate the potency of various compounds towards different target genes. A high-throughput real time quantitative PCR (RT-qPCR) assay was developed to measure these two isoforms of the mRNA (CJ and AJ) for exemplary genes, such as HTT, SMN2, and MYB, together with a control housekeeping gene, GAPDH or GUSB or PPIA, used for normalization. Briefly, the A673 or K562 cell line was treated with various compounds described herein (e.g., compounds of Formula (I)). After treatment, the levels of the HTT, MYB, or SMN2 mRNA targets were determined from each sample of cell lysate by cDNA synthesis followed by qPCR.
(§2) The A673 cell line was cultured in DMEM with 10% FBS. Cells were diluted with full growth media and plated in a 96-well plate (15,000 cells in 100 ul media per well). The plate was incubated at 37° C. with 5% CO2 for 24 hours to allow cells to adhere. An 11-point 3-fold serial dilution of the compounds was made in DMSO then diluted in media in an intermediate plate. Compounds were transferred from the intermediate plate to the cell plate with the top dose at a final concentration of 10 uM in the well. Final DMSO concentration was kept at or below 0.25%. The cell plate was returned to the incubator at 37° C. with 5% CO2 for an additional 24 hours.
(§3) The K562 cell line was cultured in IMDM with 10% FBS. For K562, cells were diluted with full growth media and plated in either a 96-well plate (50,000 cells in 50 uL media per well) or a 384-well plate (8,000-40,000 cells in 45 uL media per well). An 11-point 3-fold serial dilution of the compounds were made in DMSO then diluted in media in an intermediate plate. Compound was transferred from the intermediate plate to the cell plate with the top dose at a final concentration of 10 uM in the well. Final DMSO concentration was kept at or below 0.25%. Final volume was 100 uL for 96-well plate and 50 uL for 384-well plate. The cell plate was then placed in an incubator at 37° C. with 5% CO2 for 24 hours.
(§4) The cells were then gently washed with 50 uL-100 uL cold PBS before proceeding to addition of lysis buffer. 30 uL-50 uL of room temperature lysis buffer with DNAse I (and optionally RNAsin) was added to each well. Cells were shaken/mixed thoroughly at room temperature for 5-10 minutes for lysis to take place and then 3 uL-5 uL of room temperature stop solution was added and wells were shaken/mixed again. After 2-5 minutes, the cell lysate plate was transferred to ice for RT-qPCR reaction setup. The lysates could also be frozen at-80° C. for later use.
(§5) In some cases, a direct lysis buffer was used. An appropriate volume of 3× lysis buffer (10 mM Tris, 150 mM NaCl, 1.5%-2.5% Igepal and 0.1-1 U/uL RNAsin, pH 7.4) was directly added to either K562 or A673 cells in media and mixed by pipetting 3 times. The plates were then incubated at room temperature with shaking/rocking for 20-50 minutes to allow for lysis to take place. After this time, the cell lysate plate was transferred to ice to set up for the RT-qPCR reactions. The lysates could also be frozen at −80° C. for later use.
(§6) To set up 10 uL RT-qPCR reactions, cell lysates were transferred to 384-well qPCR plates containing the master mix according to the table below. The plates were sealed, gently vortexed, and spun down before the run. The volumes were adjusted accordingly in some instances where the reaction was carried in 20 μL. The table below summarizes the components of the RT-qPCR reactions:
(§7) The RT-qPCR reaction was performed using a QuantStudio (ThermoFisher) under the following fast cycling conditions. […]

HTT mRNA = experiment: Splicing RT-qPCR assay, HTT canonical (CJ) and alternative (AJ) junction mRNA; conditions: Homo sapiens; for EC50: AC50 = 50% response in AJ mRNA increase
Protocol: as §1, §2, §3, §4, §5, §6, §7

SMN2 mRNA = experiment: Splicing RT-qPCR gene panel, SMN2 canonical junction (CJ) mRNA; conditions: Homo sapiens; Table 8; larger gene panel, decrease in CJ mRNA levels
Protocol: as §1, §2, §3, §4, §5, §6, §7

Target C mRNA = experiment: Splicing RT-qPCR gene panel, Target C canonical junction (CJ) mRNA; conditions: Homo sapiens; Table 8; larger gene panel, decrease in CJ mRNA levels
Protocol: as §1, §2, §3, §4, §5, §6, §7

[1] = Table 7, RT-qPCR, A673 or K562 cells, 24 hours treatment
[2] = Table 7, IC50 = 50% response in CJ mRNA decrease, RT-qPCR, A673 or K562 cells, 24 hours treatment, read-out: MYB CJ
[3] = Table 8, larger gene panel, decrease in CJ mRNA levels, read-out: MYB CJ IC50
[4] = Table 7, IC50 = 50% response in CJ mRNA decrease, RT-qPCR, A673 or K562 cells, 24 hours treatment, read-out: HTT CJ
[5] = Table 8, larger gene panel, decrease in CJ mRNA levels, read-out: HTT CJ IC50

| Compound | EC50 (MYB mRNA; [1]) [nM] | IC50 (MYB mRNA; [2]) [nM] | IC50 (MYB mRNA; [3]) [nM] | EC50 (HTT mRNA; [1]) [nM] | IC50 (HTT mRNA; [4]) [nM] | IC50 (HTT mRNA; [5]) [nM] | IC50 (SMN2 mRNA) [nM] | IC50 (Target C mRNA) [nM] |
| --- | --- | --- | --- | --- | --- | --- | --- | --- |
| C[C@@H]1C[C@H](c2cc3sc(-c4cc(F)c5nn(C)cc5c4)nc3s2)CCN1 (single isomer, unassigned) [Compound 192, 7-fluoro-2-methyl-5-[5-(2-methylpiperidin-4-yl)thieno[2,3-d][1,3]thiazol-2-yl]indazole] | < 100 | < 100 | < 100 | < 100 | < 100 | < 100 | < 100 | < 100 |
| C[C@@H]1C[C@@H](c2cc3sc(-c4cc(F)c5nn(C)cc5c4)nc3s2)CCN1 (single isomer, unassigned) [Compound 193, 7-fluoro-2-methyl-5-[5-(2-methylpiperidin-4-yl)thieno[2,3-d][1,3]thiazol-2-yl]indazole] | < 100 | < 100 | < 100 | < 100 | < 100 | < 100 | < 100 | < 100 |
| Cc1cc(-c2cc3cn([C@@H]4CCNC[C@@H]4F)nc3s2)cc2cn(C)nc12 (single isomer, unassigned) [Compound 244] | 1000 to 10000 | 100 to 1000 | 100 to 1000 | 100 to 1000 | 100 to 1000 | 100 to 1000 | < 100 | 100 to 1000 |
| Cc1cc(-c2cc3cn([C@H]4CCNC[C@H]4F)nc3s2)cc2cn(C)nc12 (single isomer, unassigned) [Compound 245] | 1000 to 10000 | 1000 to 10000 | 1000 to 10000 | 100 to 1000 | 100 to 1000 | 100 to 1000 | 100 to 1000 | 1000 to 10000 |
| C[C@@H]1C[C@@H](c2cc3sc(-c4cc(F)c5nn(C)cc5c4)nc3s2)CCN1 (stereo in doubt) [Compound 263, 7-fluoro-2-methyl-5-{5-[(2R,4S)-2-methylpiperidin-4-yl]thieno[2,3-d][1,3]thiazol-2-yl}indazole] | 100 to 1000 | 100 to 1000 | 100 to 1000 | < 100 | < 100 | < 100 | < 100 | 100 to 1000 |
| Cn1cc2cc(-n3cc4sc(C5CCNCC5)cc4n3)ccc2n1 [Compound 100, 2-methyl-5-[5-(piperidin-4-yl)thieno[3,2-c]pyrazol-2-yl]indazole] | > 10000 | > 10000 | > 10000 | 1000 to 10000 | – | 1000 to 10000 | – | > 10000 |
| Cn1cc2cc(-c3cn4nc(C5CCNCC5)nc4s3)cc(F)c2n1 [Compound 102, 7-fluoro-2-methyl-5-[2-(piperidin-4-yl)-[1,2,4]triazolo[3,2-b][1,3]thiazol-5-yl]indazole] | 1000 to 10000 | 100 to 1000 | 1000 to 10000 | 100 to 1000 | 100 to 1000 | 100 to 1000 | < 100 | 100 to 1000 |
| Cn1cc2cc(-c3nc4sc(C5CCNCC5)cn4n3)cc(F)c2n1 [Compound 103, 7-fluoro-2-methyl-5-[5-(piperidin-4-yl)-[1,2,4]triazolo[3,2-b][1,3]thiazol-2-yl]indazole] | > 10000 | > 10000 | > 10000 | > 10000 | > 10000 | > 10000 | > 10000 | > 10000 |
| Cn1cc2cc(-c3nc4sc(C5CCNCC5)cc4s3)cc(F)c2n1 [Compound 106, 7-fluoro-2-methyl-5-[5-(piperidin-4-yl)thieno[2,3-d][1,3]thiazol-2-yl]indazole] | < 100 | < 100 | < 100 | < 100 | < 100 | < 100 | < 100 | < 100 |
| Cc1cn2nc(-c3nc4sc(C5CCNCC5)cc4s3)cc(C)c2n1 [Compound 112, 4-(2-[2,8-dimethylimidazo[1,2-b]pyridazin-6-yl]thieno[2,3-d][1,3]thiazol-5-yl)piperidine] | < 100 | < 100 | < 100 | < 100 | < 100 | < 100 | < 100 | < 100 |
| Cn1cc2cc(-c3cc4sc(C5CCNCC5)nc4s3)cc(F)c2n1 [Compound 124, 7-fluoro-2-methyl-5-[2-(piperidin-4-yl)thieno[2,3-d][1,3]thiazol-5-yl]indazole] | 100 to 1000 | 100 to 1000 | 100 to 1000 | < 100 | 100 to 1000 | < 100 | < 100 | 100 to 1000 |
| Cc1cn2nc(-c3cc4sc(C5CCNCC5)nc4s3)cc(C)c2n1 [Compound 125, 4-(5-[2,8-dimethylimidazo[1,2-b]pyridazin-6-yl]thieno [2,3-d][1,3]thiazol-2-yl) piperidine] | 100 to 1000 | 1000 to 10000 | 100 to 1000 | 100 to 1000 | 100 to 1000 | 100 to 1000 | 100 to 1000 | 1000 to 10000 |
| Cc1nc2c(F)cc(-c3nc4sc(C5CCNCC5)cc4s3)cc2s1 [Compound 126] | 1000 to 10000 | 1000 to 10000 | 1000 to 10000 | 100 to 1000 | 100 to 1000 | 100 to 1000 | 100 to 1000 | 1000 to 10000 |
| Cn1cc2ccc(-c3nc4sc(C5CCNCC5)cc4s3)cc2n1 [Compound 127, 2-methyl-6-[5-(piperidin-4-yl)thieno [2,3-d][1,3]thiazol-2-yl]indazole hydrochloride] | 1000 to 10000 | 1000 to 10000 | 1000 to 10000 | 1000 to 10000 | 1000 to 10000 | 1000 to 10000 | 1000 to 10000 | 1000 to 10000 |
| CC1CN(c2cc3sc(-c4cc(F)c5nn(C)cc5c4)nc3s2)CCN1C (centres unmarked) [Compound 128, 5-[5-(3,4-dimethylpiperazin-1-yl)thieno[2,3-d][1,3]thiazol-2-yl]-7-fluoro-2-methylindazole] | 1000 to 10000 | 1000 to 10000 | 1000 to 10000 | 1000 to 10000 | 1000 to 10000 | 1000 to 10000 | 100 to 1000 | 1000 to 10000 |
| Cc1cn2cc(-c3nc4sc(C5CCNCC5)cc4s3)cc(F)c2n1 [Compound 130, 4-(2-[8-fluoro-2-methylimidazo[1,2-a]pyridin-6-yl]thieno[2,3-d][1,3]thiazol-5-yl)piperidine hydrochloride] | < 100 | < 100 | < 100 | < 100 | < 100 | < 100 | < 100 | < 100 |
| Cn1cc2c(F)cc(-c3nc4sc(C5CCNCC5)cc4s3)cc2n1 [Compound 131, 4-fluoro-2-methyl-6-[5-(piperidin-4-yl)thieno[2,3-d][1,3]thiazol-2-yl]indazole] | 1000 to 10000 | 1000 to 10000 | 1000 to 10000 | 1000 to 10000 | 1000 to 10000 | 1000 to 10000 | 1000 to 10000 | 1000 to 10000 |
